Two molecules from ChEMBL document CHEMBL1141330, “Vanillic acid derivatives from the green algae Cladophora socialis as potent protein tyrosine phosphatase 1B inhibitors” (J Nat Prod, 2007) can be followed below.

The test addresses T1, Tyrosine-protein phosphatase non-receptor type 1 (Homo sapiens, UniProt P18031).
T1 sequence (P18031 whole entry): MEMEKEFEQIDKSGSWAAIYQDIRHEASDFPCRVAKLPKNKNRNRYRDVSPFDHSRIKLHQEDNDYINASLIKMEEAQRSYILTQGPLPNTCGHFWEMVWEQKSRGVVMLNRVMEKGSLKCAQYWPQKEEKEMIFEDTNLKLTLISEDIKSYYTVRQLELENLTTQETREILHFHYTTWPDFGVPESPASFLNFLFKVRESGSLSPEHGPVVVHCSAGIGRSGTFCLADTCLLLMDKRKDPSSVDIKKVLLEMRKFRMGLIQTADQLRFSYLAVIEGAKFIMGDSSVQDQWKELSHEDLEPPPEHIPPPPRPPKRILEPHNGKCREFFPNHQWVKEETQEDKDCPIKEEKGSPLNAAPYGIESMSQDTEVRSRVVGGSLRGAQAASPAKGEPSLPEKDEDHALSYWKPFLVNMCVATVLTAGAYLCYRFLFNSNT
The test is described as follows: Inhibition of PTP1B.

`O=C(O)c1cc2oc3c(Oc4ccc(-c5ccc(O)c(O)c5)cc4O)cc(O)cc3c2cc1O` gave an IC50 of 3710 nM.

On to `O=C(O)c1cc2oc3c(Oc4ccc(-c5ccc(OS(=O)(=O)O)c(O)c5)cc4O)cc(O)cc3c2cc1O`, for which inhibition was half-maximal at 1700 nM (IC50).
